The source of these data is patent publication US9708265B2, “Urethanes, ureas, amidines and related inhibitors of factor Xa” (priority 2010, dated 2017).

For one experiment, the target named is factor Xa (Homo sapiens, UniProt P00742). The experiment in a line: Activity towards factor Xa in vitro (initial rate of decomposition of substrate S-2222). The format is biochemical. Particulars: substrate S-2222 164 μM, room temperature, pH 7.5, 10 min preincubation; Ki calculated from IC50. As to the method: For some compounds depicted in the above examples, there has been measured a constant of activity of these substances towards the factor Xa in vitro—Ki. The measurements were carried out kinetically, in terms of the initial rate of decomposition of the substrate S-2222 by the protein. The measurements were carried out at room temperature in 2 ml rectangular quartz cuvettes. In the reaction there was used a solution: 50 mM Tris-HCl, 150 mM NaCl, 2.5 mM CaCl2, and 0.1% PEG 6000, pH 7.5, factor Xa […], S-2222 164 μM. The standard least-squares method was used for determining Km for certain concentrations of the protein and substrate. Before the reaction, the protein and the active agent in the solution were under thermostatic control for 10 min; then the substrate was added and the reaction was initiated. The reaction rate was measured with a Specord M80 instrument from a change in the light absorption at a wavelength of 405 nm. The IC50 values were determined from the experimentally obtained dependence of the initial rates on the concentration of the inhibitor (active agent). The Ki values were calculated from the concentrations of the protein, substrate, and inhibitors; the IC50 values, by the method described in (1) Jordan, S. P.; Waxman, L.; Smith, D. E.; Vlasik, G. P. Biochemistry 1990, 29, 11095 and (2) Morrison, J. F. Biochim Biophys. Acta 1969, 185, 269.
factor Xa, sequence (P00742 235-488 limits assumed): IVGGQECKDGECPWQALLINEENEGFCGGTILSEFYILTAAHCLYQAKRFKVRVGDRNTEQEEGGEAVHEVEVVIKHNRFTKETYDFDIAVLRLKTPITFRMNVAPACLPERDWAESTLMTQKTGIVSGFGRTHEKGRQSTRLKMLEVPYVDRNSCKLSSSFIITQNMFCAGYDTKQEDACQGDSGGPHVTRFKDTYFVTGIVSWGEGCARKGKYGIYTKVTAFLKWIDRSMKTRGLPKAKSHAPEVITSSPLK
factor Xa, sequence (P00742 41-179 partner limits assumed): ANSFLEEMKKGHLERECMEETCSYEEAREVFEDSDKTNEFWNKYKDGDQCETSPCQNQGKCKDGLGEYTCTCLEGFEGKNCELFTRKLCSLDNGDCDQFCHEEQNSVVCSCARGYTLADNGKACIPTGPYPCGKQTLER

A further experiment deals with human blood plasma. The experiment in a line: Prothrombin time in human blood plasma in vitro (Diahem P kit). The conditions noted are these: 3 min incubation, average of 3 measurements. The procedure: For some compounds depicted in the above examples, there has been measured the concentration of these compounds in human blood plasma, at which the prothrombin time of plasma is twice as much—2PT. The measurements were carried out with the aid of a Diahem P kit (NPO Renam, www.renam.ru) by a method described in the instruction for users of the kit. The active compound was dissolved in a blood plasma provided in the kit and was incubated for 3 min. The measurements were carried out with a Sysmex CA 50 instrument. For each concentration, there were taken 3 measurements and the result was averaged.

As to `COC(=N)N(C)c1ccc(C(=O)Nc2ccc(C)cc2C(=O)Nc2ccc(Cl)cn2)cc1` [Example 14, N-(5-chloropyridine-2-yl)-2-[(4-(imino(methoxy)methyl)(methyl)aminophenylcarbonyl)amino]5-methylbenzamide], the Ki on factor Xa is 2000 pM.

As to `CNC(=O)N(C)c1ccc(C(=O)Nc2ccc(Cl)cc2C(=O)Nc2ccc(Cl)cn2)cc1` [Example 17, N-(5-chloropyridine-2-yl)-2-[(4-methyl(methylcarbamoyl)aminophenylcarbonyl)amino]-5-chlorobenzamide], at factor Xa, the Ki was 150 pM. In the case of `CNC(=N)N(C)c1ccc(C(=O)Nc2ccc(Cl)cc2C(=O)Nc2ccc(Cl)cn2)cc1` [Example 16], in the experiment on human blood plasma, the “2 × PT (concentration at which the prothrombin time of plasma is twice as much)” value (“2 × PT” below) turned out to be 1.5 µM. Also, the Ki on factor Xa was 500 pM. For the compound `CC(=N)N(C)c1ccc(C(=O)Nc2ccc(Cl)cc2C(=O)Nc2ccc(Cl)cn2)c(F)c1` [Example 12], the “2 × PT” value with human blood plasma turned out to be 0.09 µM. In addition, on factor Xa, the Ki is 1000 pM. The matching figures for `CC(=N)N(C)c1ccc(C(=O)Nc2ccccc2C(=O)Nc2ccc(Cl)cn2)c(OCCCN)c1` [Example 5, N-(5-chloropyridine-2-yl)-2-[4-(ethaneimidoylmethylamino)-2-(3-aminopropoxy)phenylcarbonyl-amino]benzamide]: 0.2 µM and 500 pM. With `CC(=N)N(C)c1ccc(C(=O)Nc2ccc(C)cc2C(=O)Nc2ccc(Cl)cn2)c(F)c1` [Example 11], the “2 × PT” value in the experiment on human blood plasma stood at 0.09 µM. Also, on factor Xa, the Ki was 800 pM. `CC(=N)N(C)c1ccc(C(=O)Nc2ccc(Cl)cc2C(=O)Nc2ccc(Cl)cn2)c(OCCCN)c1` [Example 7, N-(5-chloropyridine-2-yl)-2-[4-(ethaneimidoylmethylamino)-2-(3-aminopropoxy)phenylcarbonylamino]-5-chlorobenzamide]: the Ki on factor Xa was 500 pM. Turning to `CC(=N)N(C)c1cc(F)c(C(=O)Nc2ccc(Cl)cc2C(=O)Nc2ccc(Cl)cn2)c(OCCCN)c1` [Example 10, N-(5-chloropyridine-2-yl)-2-[2-(3-aminopropoxy)-6-fluoro-4(ethaneamidoylmethylamino)phenylcarbonylamino]-5-chlorobenzamide], the “2 × PT” value with human blood plasma was 0.15 µM. Further, the inhibition constant Ki at factor Xa was 400 pM. With `CC(=N)N(C)c1ccc(C(=O)Nc2ccccc2C(=O)Nc2ccc(Cl)cn2)cc1` [Example 1, N-(5-chloropyridine-2-yl)-2-[(4-ethaneimidoyl-methylaminophenylcarbonyl)amino]benzamide], on factor Xa, the Ki was 2000 pM. Same read-out and setting: in the case of `CC(=N)N(C)c1ccc(C(=O)Nc2ccc(Cl)cc2C(=O)Nc2ccc(Cl)cn2)cc1` [Example 3, N-(5-chloropyridine-2-yl)-2-[(4-ethaneimidoyl-methyl-aminophenylcarbonyl)amino]-5-chlorobenzamide] it was 300 pM.

As to `CC(=N)N(C)c1cc(F)c(C(=O)Nc2ccc(C)cc2C(=O)Nc2ccc(Cl)cn2)c(OCCCN)c1` [Example 9, N-(5-chloropyridine-2-yl)-2-[4-(ethaneimidoylmethylamino)-2-(3-aminopropoxy)-6-fluorophenylcarbonylamino]-5-methylbenzamide], the “2 × PT” value in the experiment on human blood plasma stood at 0.15 µM. Moreover, on factor Xa, the Ki is 400 pM. Take `CC(=N)N(C)c1ccc(C(=O)Nc2ccc(C)cc2C(=O)Nc2ccc(Cl)cn2)cc1` [Example 2, N-(5-chloropyridine-2-yl)-2-[(4-ethaneimidoyl-methyl-aminophenylcarbonyl)amino]5-methylbenzamide]: at factor Xa, the Ki was 500 pM. Consider `CNC(=O)N(C)c1ccc(C(=O)Nc2ccc(C)cc2C(=O)Nc2ccc(Cl)cn2)cc1` [Example 18], for which the “2 × PT” value with human blood plasma turned out to be 3.0 µM. For the same compound, the Ki at factor Xa was 150 pM. For `CC(=N)N(C)c1ccc(C(=O)Nc2ccc(C)cc2C(=O)Nc2ccc(Cl)cn2)c(OCCCN)c1` [Example 6], the “2 × PT” value in the experiment on human blood plasma turned out to be 0.2 µM. Moreover, the Ki at factor Xa is 500 pM.

As to `COc1ccc(NC(=O)c2ccc(N(C)C(C)=N)cc2OCCCN)c(C(=O)Nc2ccc(Cl)cn2)c1` [Example 8, N-(5-chloropyridine-2-yl)2-[4(ethaneimidoylmethylamino)-2-(3-aminopropoxy)phenylcarbonyl-amino]-5-methoxybenzamide], the “2 × PT” value with human blood plasma turned out to be 0.2 µM. On factor Xa, the Ki was 500 pM. Turning to `CNC(=N)N(C)c1ccc(C(=O)Nc2ccc(C)cc2C(=O)Nc2ccc(Cl)cn2)cc1` [Example 15], in the experiment with human blood plasma, the “2 × PT” value came to 1.5 µM. In addition, the Ki on factor Xa is 500 pM. Consider `CC(=N)N(C)c1ccc(C(=O)Nc2ccc(C)cc2C(=O)Nc2ccc(Cl)cn2)c(OCCCNC(C)=O)c1` [Example 13, N-(5-chloropyridine-2-yl)-2-[4-(ethaneimidoylmethylamino)-2-(3-(acetylamino)propoxy)phenylcarbonylamino]-5-methylbenzamide], for which the “2 × PT” value with human blood plasma amounted to 1.5 µM. Further, the inhibition constant (Ki) on factor Xa was 500 pM.

With `COc1ccc(NC(=O)c2ccc(N(C)C(C)=N)cc2)c(C(=O)Nc2ccc(Cl)cn2)c1` [Example 4, N-(5-chloropyridine-2-yl)-2-[(4-ethaneimidoyl-methyl-aminophenylcarbonyl)amino]5-methoxybenzamide], at factor Xa, the Ki is 1000 pM.

Consider `CNC(=O)N(C)c1ccc(C(=O)Nc2ccc(C)cc2C(=O)Nc2ccc(Cl)cn2)c(OCCCN)c1` [Example 19], for which the “2 × PT” value with human blood plasma worked out at 1.0 µM. For the same compound, the Ki at factor Xa was 200 pM. With `CNC(=O)N(C)c1ccc(C(=O)Nc2ccc(Cl)cc2C(=O)Nc2ccc(Cl)cn2)c(OCCCN)c1` [Example 20], the “2 × PT” value with human blood plasma was found to be 1.0 µM. The Ki at factor Xa is 200 pM.
